Reference: ChEMBL document CHEMBL1149475, “Evaluation of antitumor properties of novel saframycin analogs in vitro and in vivo” (Bioorg Med Chem Lett, 2006)

Experiments:
[1] = tested on: DU-145; test: Antiproliferative activity against human DU145 cells; format: functional
[2] = tested on: HT-1080; test: Antiproliferative activity against human HT1080 cells; format: functional
[3] = Cmax in Balb/C mouse at 0.5 mg/kg, iv and 2 mg/kg, ip; format: ADME, organism-based; conditions: in vivo
[4] = Bioavailability in Balb/C mouse at 0.5 mg/kg, iv and 2 mg/kg, ip; format: ADME, organism-based; conditions: in vivo
[5] = tested on: NCI-H1299; test: Antiproliferative activity against human H1299 cells; format: functional
[6] = tested on: HeLa; test: Antiproliferative activity against human HeLa-S3 cells; format: functional
[7] = Clearance in Balb/C mouse at 0.5 mg/kg, iv and 2 mg/kg, ip; format: ADME, organism-based; conditions: in vivo
[8] = tested on: A-375; test: Antiproliferative activity against human A375 cells; format: functional
[9] = tested on: DLD-1; test: Antiproliferative activity against human DLD1 cells; format: functional
[10] = tested on: NALM-6; test: Antiproliferative activity against human Nalm6 cells; format: functional
[11] = tested on: PC-3; test: Antiproliferative activity against human PC3 cells; format: functional
[12] = AUC in Balb/C mouse at 0.5 mg/kg, iv and 2 mg/kg, ip; format: ADME, organism-based; conditions: plasma
[13] = tested on: HT-29; test: Antiproliferative activity against human HT29 cells; format: functional
[14] = tested on: P12-Ichikawa; test: Antiproliferative activity against human P12 cells; format: functional
[15] = Alpha half life in Balb/C mouse at 0.5 mg/kg, iv and 2 mg/kg, ip; format: ADME, organism-based; conditions: in vivo
[16] = tested on: BXPC-3; test: Antiproliferative activity against human BxPC3 cells; format: functional
[17] = tested on: A549; test: Antiproliferative activity against human A549 cells; format: functional
[18] = tested on: MDA-MB-231; test: Antiproliferative activity against human […] cells; format: functional
[19] = Beta half life in Balb/C mouse at 0.5 mg/kg, iv and 2 mg/kg, ip; format: ADME, organism-based; conditions: in vivo, read-out: beta t1/2
[20] = tested on: CWR22R; test: Antiproliferative activity against human CWR22Rv1 cells; format: functional; conditions: 22Rv1
[21] = tested on: HCT-116; test: Antiproliferative activity against human HCT116 cells; format: functional
[22] = tested on: HCT-116; test: Antitumor activity against human HCT116 cells transplanted in mouse at 1.25 mg/kg, ip; format: functional; conditions: HCT-116, ip, route intraperitoneal, read-out: TGI
[23] = tested on: Mus musculus; test: Toxicity in mouse at 1.25 mg/kg, ip assessed as loss of body weight; format: organism-based; set-up: dose 1.25 mg/kg, route intraperitoneal; conditions: in vivo
[24] = tested on: Mus musculus; test: Toxicity in mouse at 2.5 mg/kg, ip assessed as loss of body weight; format: organism-based; set-up: dose 2.5 mg/kg, route intraperitoneal; conditions: in vivo
[25] = tested on: HCT-116; test: Antitumor activity against human HCT116 cells transplanted in mouse at 2.5 mg/kg, ip; format: functional; conditions: HCT-116, ip, route intraperitoneal, read-out: TGI

For `COc1c(C)c(OC)c2c(c1O)[C@@H]1[C@@H]3Cc4c(OC)c(C)c(OC)c(O)c4[C@H](CNC(=O)c4ccc5ccccc5n4)N3[C@@H](C#N)[C@H](C2)N1C`, the GI50 [1] was 6.9 nM, the GI50 [2] was 5 nM and the Cmax [3] was 1100 nM. The bioavailability [4] was 46%, the GI50 [5] was 6.2 nM and the GI50 [6] was 6.6 nM. It also gave a clearance [7] of 72 mL/min/kg, a GI50 [8] of 1.3 nM and a GI50 [9] of 8.1 nM. The GI50 [10] was 0.6 nM, the GI50 [11] was 6.2 nM and the AUC [12] was 0.167 µM·h. It also gave a GI50 [13] of 7.5 nM, a GI50 [14] of 1.9 nM and a half-life [15] of 3.5 min. The GI50 [16] was 5.8 nM, the GI50 [17] was 10.7 nM and the GI50 [18] was 4.5 nM. For the same molecule, the half-life [19] was 17 min, the GI50 [20] was 1.1 nM and the GI50 [21] was 5.8 nM.
Molecule `COc1c(C)c(OC)c2c(c1O)[C@@H]1[C@@H]3Cc4c(OC)c(C)c(OC)c(O)c4[C@H](CNC(=O)c4cc5cc(OC6CCOCC6)ccc5o4)N3C[C@H](C2)N1C` has a GI50 [21] of over 300 nM.
Molecule `COc1c(C)c(OC)c2c(c1O)[C@@H]1[C@@H]3Cc4c(OC)c(C)c(OC)c(O)c4[C@H](CNC(=O)c4ccc(CNS(=O)(=O)c5cccc6c(N(C)C)cccc56)cc4)N3[C@@H](C#N)[C@H](C2)N1C` has a GI50 [21] of 201 nM.
For `COc1c(C)c(OC)c2c(c1O)[C@@H]1[C@@H]3Cc4c(OC)c(C)c(OC)c(O)c4[C@H](CNC(=O)c4cc5cc(OC6CCOCC6)ccc5o4)N3[C@@H](C#N)[C@H](C2)N1C`, the Cmax [3] was 3700 nM, the inhibition in vivo at 1.25 mg/kg [22] was 68% and the bioavailability [4] was 38%. For the same molecule, the Activity [23] was “Active”, the Activity [24] was “Active” and the clearance [7] was 45 mL/min/kg. It also gave a GI50 [9] of 8.3 nM, a GI50 [11] of 2.7 nM and an AUC [12] of 0.483 µM·h. For the same molecule, the half-life [15] was 3 min, the GI50 [17] was 18.9 nM and the half-life [19] was 25 min. It also gave an inhibition in vivo at 2.5 mg/kg [25] of 96% and a GI50 [21] of 3.2 nM.
For `COc1c(C)c(OC)c2c(c1O)[C@@H]1[C@@H]3Cc4c(OC)c(C)c(OC)c(O)c4[C@H](CNC(=O)c4cc5ccccc5o4)N3[C@@H](C#N)[C@H](C2)N1C`, the GI50 [21] was 5.5 nM.
For `COC1=C(C)C(=O)C2=C(C1=O)[C@@H]1[C@@H]3CC4=C(C(=O)C(OC)=C(C)C4=O)[C@H](CNC(=O)c4cc5cc(OC6CCOCC6)ccc5o4)N3[C@@H](C#N)[C@H](C2)N1C`, the GI50 [9] was 26.5 nM, the GI50 [11] was 16.5 nM and the GI50 [21] was 17.3 nM.
Work on `COc1c(C)c(OC)c2c(c1O)[C@@H]1[C@@H]3Cc4c(OC)c(C)c(OC)c(O)c4[C@H](CNC(=O)c4cc5cc(OCCN6CCOCC6)ccc5o4)N3[C@@H](C#N)[C@H](C2)N1C` yielded a GI50 [9] of 22.4 nM, a GI50 [11] of 11.7 nM and a GI50 [17] of 57.5 nM. For the same molecule, the GI50 [21] was 8.1 nM.
For `COc1c(C)c(OC)c2c(c1O)[C@@H]1[C@@H]3Cc4c(OC)c(C)c(OC)c(O)c4[C@H](CNC(=O)c4cc5cc(OC6CCOCC6)ccc5o4)N3[C@@H](O)[C@H](C2)N1C`, the GI50 [9] was 10.4 nM, the GI50 [11] was 5 nM and the GI50 [17] was 20.6 nM. It also gave a GI50 [21] of 5.5 nM.
